How the values were obtained:
[1] = system: MV-4-11 cells; assay: CCK-8 cell viability assay in MV-4-11 cells; format: cell-based; details: Homo sapiens, MV4-11, 72 h, 10% FBS, 3 days
Experimental: MV-4-11 cells were obtained from University of Michigan. Cells were maintained in the RPMI-1640 medium with 10% FBS and 1% P/S at 37° C. and an atmosphere of 5% CO2.
• The effect of representative Compounds of the Disclosure on cell viability was determined using Cell Counting Kit-8 (CCK-8) assay (Shanghai Life iLab Biotech) according to the manufacturer's instructions. Each tested compound was serially diluted in culture medium, and 100 μL of the compound dilution was added to the corresponding well of the cell plate. 100 μL of MV-4-11 cell suspension (20000 cells/well) in culture medium were seeded into 96-well plates. The cells were incubated at 37° C. in an atmosphere of 5% CO2 for 3 days. At the end of 3 days, 20 μL of CCK-8 solution was added to each well of the plate and incubated for 1-4 hours. The plates were read at 450 nm on the Biotek plate reader. The readings were normalized to the vehicle cells, and the IC50 was calculated using GraphPad Prism 8 software.

[2] = system: RS4; 11Bcl-2-G101V cells; assay: CellTiter-Glo (CTG) cell viability assay in RS4;11-Bcl-2-G101V cells; format: cell-based; details: 72 h, 10% FBS, 3 days
Experimental: RS4; 11Bcl-2-G101V, RS4; 11Bcl-2-D103E, RS4; 11Bcl-2-V156D and RS4; 11Bcl-2-G101V-D103E cells were obtained from Cobioer Biosciences. Cells were maintained in the RPMI-1640 medium with 10% FBS, 1% P/S and puromycin (1 μg/mL) at 37° C. and an atmosphere of 5% CO2.
• The effect of representative Compounds of the Disclosure on cell viability was determined using CellTiter-Glo® (CTG) luminescent cell viability assay (Promega, USA) according to the manufacturer's instructions. 95 μL of cell suspension (10000 cells/well) in culture medium were seeded into 96-well plates and cultured 4 hours. Each tested compound was serially diluted in blank culture medium, and 5 μL of the compound dilution was added to the corresponding well of the cell plate. After the addition of the tested compound, the cells were incubated at 37° C. in an atmosphere of 5% CO2 for 3 days. At the end of 3 days, 30 μL of CTG solution was added to each well of the plate and mix contents for 2 minutes on an orbital shaker. Allow the plate to incubate at room temperature for 15 mins to stabilize signal and record RLU on the Biotek plate reader. The readings were normalized to the vehicle cells, and the IC50 was calculated using GraphPad Prism 8 software.

Row | SMILES | IC50 [1] | IC50 [2]
1 | Cc1ccsc1C1=C(CN2CCN(c3ccc(C(=O)NS(=O)(=O)c4ccc(NCC5CCOCC5)c([N+](=O)[O-])c4)c(Oc4cnc5[nH]ccc5c4)c3)CC2)CCC(C)(C)C1 [Example 4, 2-((1H-pyrrolo[2,3-b]pyridin-5-yl)oxy)-4-(4-((4,4-dimethyl-2-(3-methylthiophen-2-yl)cyclohex-1-en-1-yl)methyl)piperazin-1-yl)-N-((3-nitro-4-(((tetrahydro-2H-pyran-4-yl)methyl)amino)phenyl)sulfonyl)benzamide] | 54 nM | 3250 nM
2 | Cc1csc(C2=C(CN3CCN(c4ccc(C(=O)NS(=O)(=O)c5ccc(NCC6CCOCC6)c([N+](=O)[O-])c5)c(Oc5cnc6[nH]ccc6c5)c4)CC3)CCC(C)(C)C2)c1 [Example 5, 2-((1H-pyrrolo[2,3-b]pyridin-5-yl)oxy)-4-(4-((4,4-dimethyl-2-(4-methylthiophen-2-yl)cyclohex-1-en-1-yl)methyl)piperazin-1-yl)-N-((3-nitro-4-(((tetrahydro-2H-pyran-4-yl)methyl)amino)phenyl)sulfonyl)benzamide] | 79 nM | 3820 nM
3 | CC(C)c1cscc1C1=C(CN2CCN(c3ccc(C(=O)NS(=O)(=O)c4ccc(NCC5CCOCC5)c([N+](=O)[O-])c4)c(Oc4cnc5[nH]ccc5c4)c3)CC2)CCC(C)(C)C1 [Example 7, 2-((1H-pyrrolo[2,3-b]pyridin-5-yl)oxy)-4-(4-((2-(4-isopropylthiophen-3-yl)-4,4-dimethylcyclohex-1-en-1-yl)methyl)piperazin-1-yl)-N-((3-nitro-4-(((tetrahydro-2H-pyran-4-yl)methyl)amino)phenyl)sulfonyl)benzamide] | 209 nM | 4270 nM
4 | CC(C)c1cscc1C1=C(CN2CCN(c3ccc(C(=O)NS(=O)(=O)c4ccc(NC[C@H]5COCCO5)c([N+](=O)[O-])c4)c(Oc4cnc5[nH]ccc5c4)c3)CC2)CCC(C)(C)C1 [Example 9, (S)—N-((4-(((1,4-dioxan-2-yl)methyl)amino)-3-nitrophenyl)sulfonyl)-2-((1H-pyrrolo[2,3-b]pyridin-5-yl)oxy)-4-(4-((2-(4-isopropylthiophen-3-yl)-4,4-dimethylcyclohex-1-en-1-yl)methyl)piperazin-1-yl)benzamide] | 167 nM | 5420 nM
5 | CC(C)c1ccc(C2=C(CN3CCN(c4ccc(C(=O)NS(=O)(=O)c5ccc(NCC6CCOCC6)c([N+](=O)[O-])c5)c(Oc5cnc6[nH]ccc6c5)c4)CC3)CCC(C)(C)C2)s1 [Example 12, 2-((1H-pyrrolo[2,3-b]pyridin-5-yl)oxy)-4-(4-((2-(5-isopropylthiophen-2-yl)-4,4-dimethylcyclohex-1-en-1-yl)methyl)piperazin-1-yl)-N-((3-nitro-4-(((tetrahydro-2H-pyran-4-yl)methyl)amino)phenyl)sulfonyl)benzamide] | 164 nM | 4030 nM
6 | CC(C)c1sccc1C1=C(CN2CCN(c3ccc(C(=O)NS(=O)(=O)c4ccc(NC[C@H]5COCCO5)c([N+](=O)[O-])c4)c(Oc4cnc5[nH]ccc5c4)c3)CC2)CCC(C)(C)C1 [Example 13, (S)—N-((4-(((1,4-dioxan-2-yl)methyl)amino)-3-nitrophenyl)sulfonyl)-2-((1H-pyrrolo[2,3-b]pyridin-5-yl)oxy)-4-(4-((2-(2-isopropylthiophen-3-yl)-4,4-dimethylcyclohex-1-en-1-yl)methyl)piperazin-1-yl)benzamide] | 25 nM | 1790 nM
7 | CC(C)c1ccc(C2=C(CN3CCN(c4ccc(C(=O)NS(=O)(=O)c5ccc(NC[C@H]6COCCO6)c([N+](=O)[O-])c5)c(Oc5cnc6[nH]ccc6c5)c4)CC3)CCC(C)(C)C2)s1 [Example 14, (S)—N-((4-(((1,4-dioxan-2-yl)methyl)amino)-3-nitrophenyl)sulfonyl)-2-((1H-pyrrolo[2,3-b]pyridin-5-yl)oxy)-4-(4-((2-(5-isopropylthiophen-2-yl)-4,4-dimethylcyclohex-1-en-1-yl)methyl)piperazin-1-yl)benzamide] | 98 nM | 2660 nM
8 | CC1(C)CCC(CN2CCN(c3ccc(C(=O)NS(=O)(=O)c4ccc(NC[C@H]5COCCO5)c([N+](=O)[O-])c4)c(Oc4cnc5[nH]ccc5c4)c3)CC2)=C(c2cc(Nc3ccc(F)cc3F)cs2)C1 [Example 20, (S)—N-((4-(((1,4-dioxan-2-yl)methyl)amino)-3-nitrophenyl)sulfonyl)-2-((1H-pyrrolo[2,3-b]pyridin-5-yl)oxy)-4-(4-((2-(4-((2,4-difluorophenyl)amino)thiophen-2-yl)-4,4-dimethylcyclohex-1-en-1-yl)methyl)piperazin-1-yl)benzamide] | > 1000 nM | > 10000 nM
9 | CC1(C)CCC(CN2CCN(c3ccc(C(=O)NS(=O)(=O)c4ccc(NC[C@H]5COCCO5)c([N+](=O)[O-])c4)c(Oc4cnc5[nH]ccc5c4)c3)CC2)=C(c2cc(CN3CC4(C3)CN(S(C)(=O)=O)C4)cs2)C1 [Example 27] | 126 nM | 1040 nM
10 | CC1(C)CCC(CN2CCN(c3ccc(C(=O)NS(=O)(=O)c4ccc(NC[C@H]5CC[C@](C)(O)CC5)c([N+](=O)[O-])c4)c(Oc4cnc5[nH]ccc5c4)c3)CC2)=C(c2cc(-c3c(F)cc(F)cc3F)cs2)C1 [Example 47, 2-((1H-pyrrolo[2,3-b]pyridin-5-yl)oxy)-4-(4-((4,4-dimethyl-2-(4-(2,4,6-trifluorophenyl)thiophen-2-yl)cyclohex-1-en-1-yl)methyl)piperazin-1-yl)-N-((4-((((1r,4r)-4-hydroxy-4-methylcyclohexyl)methyl)amino)-3-nitrophenyl)sulfonyl)benzamide] | 5 nM | 190 nM
11 | CC1(C)CCC(CN2CCN(c3ccc(C(=O)NS(=O)(=O)c4ccc(NC[C@H]5COCCO5)c([N+](=O)[O-])c4)c(Oc4cnc5[nH]ccc5c4)c3)CC2)=C(c2cc(-c3ccc(F)cn3)cs2)C1 [Example 52, (S)—N-((4-(((1,4-dioxan-2-yl)methyl)amino)-3-nitrophenyl)sulfonyl)-2-((1H-pyrrolo[2,3-b]pyridin-5-yl)oxy)-4-(4-((2-(4-(5-fluoropyridin-2-yl)thiophen-2-yl)-4,4-dimethylcyclohex-1-en-1-yl)methyl)piperazin-1-yl)benzamide] | 296 nM | 4990 nM
12 | CC1(C)CCC(CN2CCN(c3ccc(C(=O)NS(=O)(=O)c4ccc(NC[C@H]5COCCO5)c([N+](=O)[O-])c4)c(Oc4cnc5[nH]ccc5c4)c3)CC2)=C(c2cc(-c3c(F)cc(F)c4cc[nH]c34)cs2)C1 [Example 57, (S)—N-((4-(((1,4-dioxan-2-yl)methyl)amino)-3-nitrophenyl)sulfonyl)-2-((1H-pyrrolo[2,3-b]pyridin-5-yl)oxy)-4-(4-((2-(4-(4,6-difluoro-1H-indol-7-yl)thiophen-2-yl)-4,4-dimethylcyclohex-1-en-1-yl)methyl)piperazin-1-yl)benzamide] | 1210 nM | 5810 nM
13 | CC1(C)CCC(CN2CCN(c3ccc(C(=O)NS(=O)(=O)c4ccc(NC[C@H]5CC[C@](C)(O)CC5)c([N+](=O)[O-])c4)c(Oc4cnc5[nH]ccc5c4)c3)CC2)=C(c2cc(C#Cc3ccc(F)cc3)cs2)C1 [Example 61, 2-((1H-pyrrolo[2,3-b]pyridin-5-yl)oxy)-4-(4-((2-(4-((4-fluorophenyl)ethynyl)thiophen-2-yl)-4,4-dimethylcyclohex-1-en-1-yl)methyl)piperazin-1-yl)-N-((4-((((1r,4r)-4-hydroxy-4-methylcyclohexyl)methyl)amino)-3-nitrophenyl)sulfonyl)benzamide] | 107 nM | 3180 nM

Source: patent US12577245B2, “Sulfonyl benzamide derivatives as Bcl-2 inhibitors” (ASCENTAGE PHARMA (SUZHOU) CO., LTD., priority 2021, dated 2026)
